From PMC4048129 (Chemistry and physics of lipids, 2013)
In brackets after ≈: the same amount, converted by molar mass. Like-named read-outs stand apart in the source and are kept apart here.

Key:
[1] = Cytotoxicity testing, MTT assay; type: cell-based; conditions: human
[2] = test system: Mycobacterium tuberculosis; conditions: ref Carballeira et al., 2006; cited from earlier work
CIMRSA 1 [3] = assay: Determination of bactericidal concentration; type: cell-based, Clinical isolate of methicillin-resistant S. aureus; conditions: CIMRSA 1 and 2 (both strains, text summary)
CIMRSA 1 [4] = assay: Microdilution susceptibility testing; conditions: for IC50: read-out: IC50 ± SEM
B. cereus (ATCC 10876) = assay: Microdilution susceptibility testing; conditions: for IC50: ATCC10876, read-out: IC50 ± SEM
S. aureus (ATCC 29213) = assay: Microdilution susceptibility testing; conditions: for IC50: ATCC29213, read-out: IC50 ± SEM
[5] = test system: S. saprophyticus (ATCC 15305); assay: Microdilution susceptibility testing; conditions: for IC50: ATCC15305, read-out: IC50 ± SEM
E. coli (ATCC 25922) = assay: Microdilution susceptibility testing
MRSA ATCC 43300 = assay: Microdilution susceptibility testing; conditions: for IC50: read-out: IC50 ± SEM
CIMRSA 2 = assay: Microdilution susceptibility testing; conditions: for IC50: read-out: IC50 ± SEM
[6] = test system: P. aeruginosa (ATCC 27853); assay: Microdilution susceptibility testing; conditions: for IC50: ATCC27853, read-out: IC50 ± SEM
[7] = test system: K. pneumoniae (ATCC 13883); assay: Microdilution susceptibility testing; conditions: for IC50: ATCC13883, read-out: IC50 ± SEM
[8] = test system: Peripheral blood mononuclear cells (PBMC); assay: Cytotoxicity testing, MTT assay; type: cell-based
[9] = test system: Gram-positive and Gram-negative bacteria; assay: Antibacterial activity against the bacteria of Table 1; conditions: for antibacterial activity: all bacteria presented in Table 1, result in words
[10] = test system: Leishmania donovani amastigotes; conditions: cited from earlier work
[11] = test system: Neisseria gonorrhoeae, Neisseria meningitidis, and Bacteroides fragilis; conditions: N. gonorrhoeae, B. fragilis, ref Konthikamee et al., 1982; cited from earlier work
[12] = target: L. donovani DNA topoisomerase IB enzyme (LdTopIB); conditions: ref Carballeira et al., 2012; cited from earlier work
[13] = peripheral blood mononuclear cells (PBMC)
[14] = Staphylococcus aureus, ATCC29213
[15] = Staphylococcus saprophyticus, ATCC15305, S. saprophyticus ATCC 15305, 37°C, 18-24 h
[16] = Staphylococcus aureus, ATCC43300|MRSA
[17] = Pseudomonas aeruginosa, ATCC27853
[18] = Klebsiella pneumoniae, ATCC13883
[19] = B. cereus ATCC 10876, 37°C, 18-24 h
[20] = S. aureus ATCC 29213, 37°C, 18-24 h
[21] = S. saprophyticus ATCC 15305, 37°C, 18-24 h
[22] = E. coli ATCC 25922, 37°C, 18-24 h
[23] = P. aeruginosa ATCC 27853, 37°C, 18-24 h
[24] = K. pneumoniae ATCC 13883, 37°C, 18-24 h

Structure (SMILES)	bactericidal concentration (CIMRSA 1 [3])	MIC (CIMRSA 1 [4]; Staphylococcus aureus)	IC50 (CIMRSA 1 [4]; Staphylococcus aureus)	MIC (B. cereus (ATCC 10876); Bacillus cereus, ATCC10876)	IC50 (B. cereus (ATCC 10876); Bacillus cereus)	MIC (S. aureus (ATCC 29213); [14])	IC50 (S. aureus (ATCC 29213); Staphylococcus aureus)	MIC [5, 15]	IC50 ([5]; Staphylococcus saprophyticus)	MIC (E. coli (ATCC 25922); Escherichia coli, ATCC25922)	MIC (MRSA ATCC 43300; [16])	IC50 (MRSA ATCC 43300; [16])	MIC (CIMRSA 2; Staphylococcus aureus)	IC50 (CIMRSA 2; Staphylococcus aureus)	MIC [6, 17]	MIC [7, 18]	IC50 ([7]; Klebsiella pneumoniae)	antibacterial activity [9]	further results
CCCCCCCCCC#CCCC#CC(=O)O [2,6-HDA, 2,6-hexadecadiynoic acid]	125 to 500 µg/mL	62.5 µg/mL (≈ 252 µM)	39.5 µg/mL (≈ 159 µM)	62.5 µg/mL (≈ 252 µM)	46.1 µg/mL (≈ 186 µM)	31.3 µg/mL (≈ 126 µM)	14.1 µg/mL (≈ 56.8 µM)	62.5 µg/mL (≈ 252 µM)	21.5 µg/mL (≈ 86.6 µM)	> 1000 µg/mL	62.5 µg/mL (≈ 252 µM)	22.3 µg/mL (≈ 89.8 µM)	62.5 µg/mL (≈ 252 µM)	22.4 µg/mL (≈ 90.2 µM)	250 µg/mL (≈ 1010 µM)	62.5 µg/mL (≈ 252 µM)	31.2 µg/mL (≈ 126 µM)	–	IC50 at 3 days [1, 13]: 63.4 ± 0.3 µg/mL (≈ 255 µM); minimum inhibitory concentrations (MICs) [2]: 141 to 145 µM; IC50 ([6]; Pseudomonas aeruginosa): 132 µg/mL (≈ 533 µM)
CCCCCCC#CCCCCCC#CC(=O)O [2,9-HDA]	125 to 500 µg/mL	–	–	–	–	–	–	–	–	–	–	–	–	–	–	–	–	–	PBMC cytotoxicity, IC50 ± SEM [8]: 93.3 ± 0.4 µg/mL; IC50 ± SEM (CIMRSA 1 [4]; CIMRSA 1): 102.1 ± 2.4 µg/mL (≈ 411 µM); MIC (CIMRSA 1 [4]; CIMRSA 1): 250 µg/mL (≈ 1010 µM); IC50 ± SEM (B. cereus (ATCC 10876); [19]): 34.2 ± 0.3 µg/mL (≈ 138 µM); MIC (B. cereus (ATCC 10876); [19]): 62.5 µg/mL (≈ 252 µM); IC50 ± SEM (S. aureus (ATCC 29213); [20]): 94.0 ± 0.9 µg/mL (≈ 378 µM); MIC (S. aureus (ATCC 29213); [20]): 250 µg/mL (≈ 1010 µM); IC50 ± SEM [5, 21]: 61.5 ± 1.2 µg/mL (≈ 248 µM); MIC [5, 21]: 125 µg/mL (≈ 503 µM); MIC (E. coli (ATCC 25922); [22]): >1,000 μg/mL; IC50 ± SEM (MRSA ATCC 43300; MRSA ATCC 43300): 203.5 ± 2.6 µg/mL (≈ 819 µM); MIC (MRSA ATCC 43300; MRSA ATCC 43300): 500 µg/mL (≈ 2010 µM); IC50 ± SEM (CIMRSA 2; CIMRSA 2): 76.0 ± 2.4 µg/mL (≈ 306 µM); MIC (CIMRSA 2; CIMRSA 2): 250 µg/mL (≈ 1010 µM); MIC [6, 23]: >1,000 μg/mL; IC50 ± SEM [7, 24]: 135.4 ± 0.7 µg/mL (≈ 545 µM); MIC [7, 24]: 250 µg/mL (≈ 1010 µM)
O=C(O)c1cn(C2CC2)c2cc(N3CCNCC3)c(F)cc2c1=O [Ciprofloxacin, reference compound]	–	–	–	0.05 µg/mL (≈ 0.151 µM)	0.03 µg/mL (≈ 0.0905 µM)	0.25 µg/mL (≈ 0.754 µM)	0.14 µg/mL (≈ 0.423 µM)	< 0.002 µg/mL	–	< 0.008 µg/mL	0.5 µg/mL (≈ 1.51 µM)	0.2 µg/mL (≈ 0.604 µM)	–	–	0.24 µg/mL (≈ 0.724 µM)	0.24 µg/mL (≈ 0.724 µM)	0.13 µg/mL (≈ 0.392 µM)	–	IC50 at 3 days [1]: 66.4 ± 0.6 µg/mL (≈ 200 µM); IC50 ([6]; Pseudomonas aeruginosa): 0.11 µg/mL (≈ 0.332 µM)
CCCCCCCCCCCCCC#CC(=O)O [Compound 2-HDA, 2-hexadecynoic acid]	7.8 µg/mL	3.9 µg/mL (≈ 15.5 µM)	3.3 µg/mL (≈ 13.1 µM)	31.3 µg/mL (≈ 124 µM)	17.2 µg/mL (≈ 68.1 µM)	15.6 µg/mL (≈ 61.8 µM)	6.2 µg/mL (≈ 24.6 µM)	15.5 µg/mL (≈ 61.4 µM)	8.8 µg/mL (≈ 34.9 µM)	> 1000 µg/mL	15.6 µg/mL (≈ 61.8 µM)	9.4 µg/mL (≈ 37.2 µM)	3.9 µg/mL (≈ 15.5 µM)	3.4 µg/mL (≈ 13.5 µM)	125 µg/mL (≈ 495 µM)	7.8 µg/mL (≈ 30.9 µM)	6.1 µg/mL (≈ 24.2 µM)	–	IC50 at 3 days [1, 13]: 57.2 ± 0.1 µg/mL (≈ 227 µM); minimum inhibitory concentrations (MICs) [2]: 141 to 145 µM; MIC (CIMRSA 1 [4]; Staphylococcus aureus, MRSA): 3.9 µg/mL (≈ 15.5 µM); MIC ([9]; read-out: MICs): 7.8 to 125 µg/mL (≈ 30.9 to 495 µM); IC50 ([10]; L. donovani amastigotes, ref Tasdemir et al., 2010): 17.8 µM; MIC [5, 21]: 15.6 µg/mL (≈ 61.8 µM); active concentrations [11]: 5.0 to 21.4 µM; IC50 ([6]; Pseudomonas aeruginosa): 87.8 µg/mL (≈ 348 µM); IC50 [12]: 28.7 µM
CCCCCCCCCCCCCC#CCO [Compound 2-HDOH, 2-Hexadecyn-1-ol]	–	–	–	> 1000 µg/mL	–	> 1000 µg/mL	–	> 1000 µg/mL	–	> 1000 µg/mL	–	–	–	–	> 1000 µg/mL	> 1000 µg/mL	–	not active	–
CCCCCCCCCCCCCC#CCOC1CCCCO1 (stereo not shown) [Compound 2-HDOTHP, 2-(2-Hexadecynyloxy)-tetrahydro-2H-pyran]	–	–	–	> 1000 µg/mL	–	> 1000 µg/mL	–	> 1000 µg/mL	–	> 1000 µg/mL	–	–	–	–	> 1000 µg/mL	> 1000 µg/mL	–	inactive	–
CCCCCCCCCCCCCCCCCC#CC(=O)O [Compound 2-ICA, 2-icosanoic acid]	–	–	–	–	–	–	–	–	–	–	–	–	–	–	–	–	–	did not show antibacterial activity	MIC (B. cereus (ATCC 10876); [19]): >1,000 μg/mL; MIC (S. aureus (ATCC 29213); [20]): >1,000 μg/mL; MIC [5, 21]: >1,000 μg/mL; MIC (E. coli (ATCC 25922); [22]): >1,000 μg/mL; MIC [6, 23]: >1,000 μg/mL; MIC [7, 24]: >1,000 μg/mL
CCCCCCCCCCCCCCCC#CC(=O)O [Compound 2-ODA, 2-Octadecynoic acid]	15.6 µg/mL	7.8 µg/mL (≈ 27.8 µM)	4.3 µg/mL (≈ 15.3 µM)	15.6 µg/mL (≈ 55.6 µM)	11.9 µg/mL (≈ 42.4 µM)	15.6 µg/mL (≈ 55.6 µM)	8.1 µg/mL (≈ 28.9 µM)	125 µg/mL (≈ 446 µM)	68.8 µg/mL (≈ 245 µM)	> 1000 µg/mL	7.8 µg/mL (≈ 27.8 µM)	5.5 µg/mL (≈ 19.6 µM)	7.8 µg/mL (≈ 27.8 µM)	5.5 µg/mL (≈ 19.6 µM)	> 1000 µg/mL	7.8 µg/mL (≈ 27.8 µM)	5.6 µg/mL (≈ 20 µM)	–	IC50 at 3 days [1, 13]: 58.9 ± 0.1 µg/mL (≈ 210 µM); IC50 ([10]; L. donovani, ref Carballeira et al., 2012): 11 µM; IC50 [12]: 5.3 µM
CCCCCCCCCCCCCCCC#CCO [Compound 2-ODOH, 2-Octadecyn-1-ol]	–	–	–	> 1000 µg/mL	–	> 1000 µg/mL	–	> 1000 µg/mL	–	> 1000 µg/mL	–	–	–	–	> 1000 µg/mL	> 1000 µg/mL	–	–	–
CCCCCCCCCCCCCCCC#CCOC1CCCCO1 (stereo not shown) [Compound 2-ODOTHP, 2-(2-Octadecynyloxy)-tetrahydro-2H-pyran]	–	–	–	> 1000 µg/mL	–	> 1000 µg/mL	–	> 1000 µg/mL	–	> 1000 µg/mL	–	–	–	–	> 1000 µg/mL	> 1000 µg/mL	–	inactive	–
COc1cccc(OC)c1C(=O)N[C@@H]1C(=O)N2[C@@H]1SC(C)(C)[C@@H]2C(=O)O [Methicillin, reference compound]	–	7.8 µg/mL (≈ 20.5 µM)	2.2 µg/mL (≈ 5.78 µM)	62.5 µg/mL (≈ 164 µM)	38.2 µg/mL (≈ 100 µM)	0.06 µg/mL (≈ 0.158 µM)	0.03 µg/mL (≈ 0.0789 µM)	0.12 µg/mL (≈ 0.315 µM)	0.06 µg/mL (≈ 0.158 µM)	> 1000 µg/mL	1.95 µg/mL (≈ 5.13 µM)	0.98 µg/mL (≈ 2.58 µM)	31.3 µg/mL (≈ 82.3 µM)	11.8 µg/mL (≈ 31 µM)	> 1000 µg/mL	0.98 µg/mL (≈ 2.58 µM)	0.36 µg/mL (≈ 0.946 µM)	–	IC50 at 3 days [1]: 86.1 ± 0.5 µg/mL (≈ 226 µM)
